# US20230301300A1, “HERBICIDAL COMPOSITIONS” (SYNGENTA CROP PROTECTION AG, priority 2020, published 2023)
# What was measured:
# Format in all cases: in vivo
# [1] = system: Amaranthus retoflexus (AMARE); assay: B1 Post-Emergence Efficacy - Test 1; conditions: 1000 g/ha, after 13 days, five point scale
# Protocol: (§1) Seeds of a variety of test species are sown in standard soil in pots:— Solanum nigrum (SOLNI), Amaranthus retoflexus (AMARE), Setaria faberi (SETFA), Alopecurus myosuroides (ALOMY), Echinochloa crus-galli (ECHCG), Ipomoea hederacea (IPOHE), Lolium perenne (LOLPE). After 8 days cultivation (post-emergence) under controlled conditions in a glasshouse (at 24/16° C., day/night; 14 hours light; 65% humidity), the plants are sprayed with an aqueous spray solution derived from the formulation of the technical active ingredient in acetone/water (50:50) solution containing 0.5% Tween 20 (polyoxyethylene sorbitan monolaurate, CAS RN 9005-64-5). Compounds are applied at 1000 g/ha. The test plants are then grown in a glasshouse under controlled conditions in a glasshouse (at 24/16° C., day/night; 14 hours light; 65% humidity) and watered twice daily. After 13 days, the test is evaluated for the percentage damage caused to the plant. The biological activities are assessed on a five point scale (5=80-100%; 4=60-79%; 3=40-59%; 2=20-39%; 1=0-19%). A blank value in the table is indicative that the compound was not tested on that species.
# [2] = system: Echinochloa crus-galli (ECHCG); assay: B1 Post-Emergence Efficacy - Test 1; conditions: 1000 g/ha, after 13 days, five point scale
# Protocol: as §1
# [3] = system: Ipomoea hederacea (IPOHE); assay: B1 Post-Emergence Efficacy - Test 1; conditions: 1000 g/ha, after 13 days, five point scale
# Protocol: as §1
# Lolium perenne (LOLPE) = assay: B1 Post-Emergence Efficacy - Test 1; conditions: 1000 g/ha, after 13 days, five point scale
# Protocol: as §1
# Setaria faberi (SETFA) [4] = assay: B1 Post-Emergence Efficacy - Test 1; conditions: 1000 g/ha, after 13 days, five point scale
# Protocol: as §1
# Solanum nigrum (SOLNI) = assay: B1 Post-Emergence Efficacy - Test 1; conditions: 1000 g/ha, after 13 days, five point scale
# Protocol: as §1
# [5] = system: Amaranthus retroflexus (AMARE); assay: B2 Post-Emergence Efficacy - Test 2; conditions: 15 days after application, 0-100 scale
# Protocol: (§2) Seeds of a variety of test species (see Table B1) were sown in standard soil in pots. After cultivation for 12 days (post-emergence) under controlled conditions in a glasshouse (at 24/18° C. or 20/16° C., at day/night; 16 hours light; 65% humidity), the plants were sprayed with an aqueous spray solution derived from the formulation of the technical active ingredient dissolved in IF50 (see Table B2 for composition) and adjuvant (Genapol X080) was added to the spray solution at a rate of 0.2% v/v.
# (§3) After application, the test plants were grown in a glasshouse under controlled conditions (as above) and watered twice daily. Herbicidal activity was evaluated 15 days after application on a 0-100 scale. The results, where 0=no damage to test plant and 100=total kill of test plant are shown below in Tables 8 to 11.
# Bidens pilosa (BIDPI) = assay: B2 Post-Emergence Efficacy - Test 2; conditions: 15 days after application, 0-100 scale
# Protocol: as §2, §3
# [6] = system: Brachiaria plantaginea (BRAPL); assay: B2 Post-Emergence Efficacy - Test 2; conditions: 15 days after application, 0=no damage, 100=total kill
# Protocol: as §2, §3
# [7] = system: Chenopodium album (CHEAL); assay: B2 Post-Emergence Efficacy - Test 2; conditions: 15 days after application, 0-100 scale
# Protocol: as §2, §3
# [8] = system: Echinochloa crus galli (ECHCG); assay: B2 Post-Emergence Efficacy - Test 2; conditions: 15 days after application, 0=no damage, 100=total kill
# Protocol: as §2, §3
# Hordeum vulgare (HORVW) = assay: B2 Post-Emergence Efficacy - Test 2; conditions: 15 days after application, 0-100 scale
# Protocol: as §2, §3
# Kochia scoparia (KSHSC) = assay: B2 Post-Emergence Efficacy - Test 2; conditions: 15 days after application, 0-100 scale
# Protocol: as §2, §3
# Orysa sativa (ORYSA) = assay: B2 Post-Emergence Efficacy - Test 2; conditions: 15 days after application; for Herbicidal activity ORYSA: 0-100 scale; for Herbicidal activity on a 0-100 scale, ORYSA: 0=no damage, 100=total kill
# Protocol: as §2, §3
# Setaria faberi (SETFA) [9] = assay: B2 Post-Emergence Efficacy - Test 2; conditions: 15 days after application, 0=no damage, 100=total kill
# Protocol: as §2, §3
# Stellaria media (STEME) = assay: B2 Post-Emergence Efficacy - Test 2; conditions: 15 days after application, 0-100 scale
# Protocol: as §2, §3
# [10] = system: Triticum aestivum (TRZAW); assay: B2 Post-Emergence Efficacy - Test 2; conditions: 15 days after application, 0-100 scale
# Protocol: as §2, §3
# Veronica persica (VERPE) = assay: B2 Post-Emergence Efficacy - Test 2; conditions: 15 days after application, 0-100 scale
# Protocol: as §2, §3
compound,measurement,setting,value
"Cc1nn(C)c(=O)c(-c2c(F)ccc(Cl)c2CCc2ccc(C#N)cc2)c1O [Compound 1.024, 4-[3-chloro-6-fluoro-2-[2-[4-(cyano)phenyl]ethyl]phenyl]-5-hydroxy-2,6-dimethyl-pyridazin-3-one]","percentage damage caused to the plant, AMARE",[1],5 (5=80-100%)
same,"percentage damage caused to the plant, ECHCG",[2],5 (5=80-100%)
same,"percentage damage caused to the plant, IPOHE",[3],5 (5=80-100%)
same,"percentage damage caused to the plant, LOLPE",Lolium perenne (LOLPE),5 (5=80-100%)
same,"percentage damage caused to the plant, SETFA",Setaria faberi (SETFA) [4],5 (5=80-100%)
same,"percentage damage caused to the plant, SOLNI",Solanum nigrum (SOLNI),5 (5=80-100%)
same,Herbicidal activity AMARE,[5]; 15 g/Ha,80
same,Herbicidal activity AMARE,[5]; 30 g/Ha,90
same,Herbicidal activity AMARE,[5]; 60 g/Ha,90
same,Herbicidal activity AMARE,[5]; 125 g/Ha,100
same,Herbicidal activity AMARE,[5]; 250 g/Ha,100
same,Herbicidal activity AMARE,[5]; 500 g/Ha,100
same,Herbicidal activity BIDPI,Bidens pilosa (BIDPI); 15 g/Ha,80
same,Herbicidal activity BIDPI,Bidens pilosa (BIDPI); 30 g/Ha,80
same,Herbicidal activity BIDPI,Bidens pilosa (BIDPI); 60 g/Ha,80
same,Herbicidal activity BIDPI,Bidens pilosa (BIDPI); 125 g/Ha,80
same,Herbicidal activity BIDPI,Bidens pilosa (BIDPI); 250 g/Ha,80
same,Herbicidal activity BIDPI,Bidens pilosa (BIDPI); 500 g/Ha,90
same,"Herbicidal activity on a 0-100 scale, BRAPL",[6]; 15 g/Ha,30
same,"Herbicidal activity on a 0-100 scale, BRAPL",[6]; 30 g/Ha,60
same,"Herbicidal activity on a 0-100 scale, BRAPL",[6]; 60 g/Ha,70
same,"Herbicidal activity on a 0-100 scale, BRAPL",[6]; 125 g/Ha,70
same,"Herbicidal activity on a 0-100 scale, BRAPL",[6]; 250 g/Ha,70
same,"Herbicidal activity on a 0-100 scale, BRAPL",[6]; 500 g/Ha,90
same,Herbicidal activity CHEAL,[7]; 15 g/Ha,60
same,Herbicidal activity CHEAL,[7]; 30 g/Ha,90
same,Herbicidal activity CHEAL,[7]; 60 g/Ha,90
same,Herbicidal activity CHEAL,[7]; 125 g/Ha,90
same,Herbicidal activity CHEAL,[7]; 250 g/Ha,90
same,Herbicidal activity CHEAL,[7]; 500 g/Ha,100
same,"Herbicidal activity on a 0-100 scale, ECHCG",[8]; 15 g/Ha,70
same,"Herbicidal activity on a 0-100 scale, ECHCG",[8]; 30 g/Ha,80
same,"Herbicidal activity on a 0-100 scale, ECHCG",[8]; 60 g/Ha,80
same,"Herbicidal activity on a 0-100 scale, ECHCG",[8]; 125 g/Ha,90
same,"Herbicidal activity on a 0-100 scale, ECHCG",[8]; 250 g/Ha,90
same,"Herbicidal activity on a 0-100 scale, ECHCG",[8]; 500 g/Ha,100
same,Herbicidal activity HORVW,Hordeum vulgare (HORVW); 15 g/Ha,0
same,Herbicidal activity HORVW,Hordeum vulgare (HORVW); 30 g/Ha,10
same,Herbicidal activity HORVW,Hordeum vulgare (HORVW); 60 g/Ha,10
same,Herbicidal activity HORVW,Hordeum vulgare (HORVW); 125 g/Ha,10
same,Herbicidal activity HORVW,Hordeum vulgare (HORVW); 250 g/Ha,10
same,Herbicidal activity HORVW,Hordeum vulgare (HORVW); 500 g/Ha,20
same,Herbicidal activity KCHSC,Kochia scoparia (KSHSC); 15 g/Ha,0
same,Herbicidal activity KCHSC,Kochia scoparia (KSHSC); 30 g/Ha,0
same,Herbicidal activity KCHSC,Kochia scoparia (KSHSC); 60 g/Ha,0
same,Herbicidal activity KCHSC,Kochia scoparia (KSHSC); 125 g/Ha,10
same,Herbicidal activity KCHSC,Kochia scoparia (KSHSC); 250 g/Ha,10
same,Herbicidal activity KCHSC,Kochia scoparia (KSHSC); 500 g/Ha,20
same,Herbicidal activity ORYSA,Orysa sativa (ORYSA); 15 g/Ha,0
same,"Herbicidal activity on a 0-100 scale, ORYSA",Orysa sativa (ORYSA); 15 g/Ha,0
same,Herbicidal activity ORYSA,Orysa sativa (ORYSA); 30 g/Ha,0
same,"Herbicidal activity on a 0-100 scale, ORYSA",Orysa sativa (ORYSA); 30 g/Ha,0
same,Herbicidal activity ORYSA,Orysa sativa (ORYSA); 60 g/Ha,0
same,"Herbicidal activity on a 0-100 scale, ORYSA",Orysa sativa (ORYSA); 60 g/Ha,0
same,Herbicidal activity ORYSA,Orysa sativa (ORYSA); 125 g/Ha,0
same,"Herbicidal activity on a 0-100 scale, ORYSA",Orysa sativa (ORYSA); 125 g/Ha,0
same,Herbicidal activity ORYSA,Orysa sativa (ORYSA); 250 g/Ha,20
same,"Herbicidal activity on a 0-100 scale, ORYSA",Orysa sativa (ORYSA); 250 g/Ha,20
same,Herbicidal activity ORYSA,Orysa sativa (ORYSA); 500 g/Ha,40
same,"Herbicidal activity on a 0-100 scale, ORYSA",Orysa sativa (ORYSA); 500 g/Ha,40
same,"Herbicidal activity on a 0-100 scale, SETFA",Setaria faberi (SETFA) [9]; 15 g/Ha,20
same,"Herbicidal activity on a 0-100 scale, SETFA",Setaria faberi (SETFA) [9]; 30 g/Ha,70
same,"Herbicidal activity on a 0-100 scale, SETFA",Setaria faberi (SETFA) [9]; 60 g/Ha,80
same,"Herbicidal activity on a 0-100 scale, SETFA",Setaria faberi (SETFA) [9]; 125 g/Ha,90
same,"Herbicidal activity on a 0-100 scale, SETFA",Setaria faberi (SETFA) [9]; 250 g/Ha,90
same,"Herbicidal activity on a 0-100 scale, SETFA",Setaria faberi (SETFA) [9]; 500 g/Ha,100
same,Herbicidal activity STEME,Stellaria media (STEME); 15 g/Ha,90
same,Herbicidal activity STEME,Stellaria media (STEME); 30 g/Ha,90
same,Herbicidal activity STEME,Stellaria media (STEME); 60 g/Ha,90
same,Herbicidal activity STEME,Stellaria media (STEME); 125 g/Ha,90
same,Herbicidal activity STEME,Stellaria media (STEME); 250 g/Ha,90
same,Herbicidal activity STEME,Stellaria media (STEME); 500 g/Ha,100
same,Herbicidal activity TRZAW,[10]; 15 g/Ha,0
same,Herbicidal activity TRZAW,[10]; 30 g/Ha,0
same,Herbicidal activity TRZAW,[10]; 60 g/Ha,20
same,Herbicidal activity TRZAW,[10]; 125 g/Ha,30
same,Herbicidal activity TRZAW,[10]; 250 g/Ha,60
same,Herbicidal activity TRZAW,[10]; 500 g/Ha,70
same,Herbicidal activity VERPE,Veronica persica (VERPE); 15 g/Ha,80
same,Herbicidal activity VERPE,Veronica persica (VERPE); 30 g/Ha,80
same,Herbicidal activity VERPE,Veronica persica (VERPE); 60 g/Ha,90
same,Herbicidal activity VERPE,Veronica persica (VERPE); 125 g/Ha,80
same,Herbicidal activity VERPE,Veronica persica (VERPE); 250 g/Ha,100
same,Herbicidal activity VERPE,Veronica persica (VERPE); 500 g/Ha,100
